According to publication PMC3517602 (PLoS ONE, 2012):

Target: T1, neuropeptide Y Y1 receptor (Y1R) (Homo sapiens, UniProt P25929)
T1 construct: gene NPY1R
T1 sequence (P25929 1-384): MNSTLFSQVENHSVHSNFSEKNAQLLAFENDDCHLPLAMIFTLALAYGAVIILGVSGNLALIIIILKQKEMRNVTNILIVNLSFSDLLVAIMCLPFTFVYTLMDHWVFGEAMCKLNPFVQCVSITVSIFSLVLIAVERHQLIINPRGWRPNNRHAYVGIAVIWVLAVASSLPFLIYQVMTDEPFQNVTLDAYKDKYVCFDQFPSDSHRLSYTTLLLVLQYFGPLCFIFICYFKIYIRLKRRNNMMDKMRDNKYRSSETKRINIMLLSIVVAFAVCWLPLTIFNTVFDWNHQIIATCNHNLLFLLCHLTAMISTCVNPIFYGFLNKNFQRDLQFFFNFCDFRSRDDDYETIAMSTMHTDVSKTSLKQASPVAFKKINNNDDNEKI
Assay: radioligand saturation binding on whole MCF-7 (L) cells
Assay type: cell-based

- Kd: 5 nM
SMILES: CCC(=O)/N=C(/N)NCCC[C@@H](NC(=O)C(c1ccccc1)c1ccccc1)C(=O)NCc1ccc(O)cc1 [[^3H]-UR-MK114]
